These are literature values, as cited in US20050266079A1, “Process for making aqueous coated beadlets” (SmithKline Beecham Corporation, priority 1999, published 2005).

For this data set the following is noted: in vivo; cited from earlier work.

The structures appear in SMILES notation.

Turning to `CN[C@@H](C)[C@@H](O)c1ccccc1.Cl` [Pseudoephedrine HCl, (1S, 2S)-2-Methylamino-1-phenyl-1-propanol hydrochloride], the elimination half life is 5 to 8 h.
